Test results from patent US20260242478A1, “ANTIBODIES FOR TARGETING PSMA AND CD28 AND USES THEREOF” (Janux Therapeutics, Inc., priority 2023, published 2026).
Where no end group is shown, it is not given here.

What follows are substances tested on anti-CD28 scFv (assay: Panning ELISA of clonal phage, anti-CD28 scFv, with or without CD28 soluble protein (Peptide-9 library)). Conditions: Peptide-9 library, background (no anti-CD28 scFv).
Type: binding
Description: Clonal phage were harvested as crude supernatants and screened via standard enzyme linked immunosorbent assays (ELISAs). […] Prior to the addition of clonal phage, wells were incubated with blocking buffer and CD28 soluble protein or blocking buffer alone. Without washing or aspirating, clonal phage supernatants were then added to the wells and incubated for a short time. Wells were then washed followed by detection of bound phage using a horse radish peroxidase conjugated anti-M13 antibody. Clonal phage of interest were then sent for sequence analysis.

Sequence of anti-CD28 scFv (as listed by the source): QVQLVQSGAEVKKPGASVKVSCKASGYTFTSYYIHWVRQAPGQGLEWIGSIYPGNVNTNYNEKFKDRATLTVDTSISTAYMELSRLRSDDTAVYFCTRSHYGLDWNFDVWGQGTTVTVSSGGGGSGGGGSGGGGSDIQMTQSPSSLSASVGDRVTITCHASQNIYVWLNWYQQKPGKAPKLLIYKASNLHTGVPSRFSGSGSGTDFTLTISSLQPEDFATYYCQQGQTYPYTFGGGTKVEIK

First: Phage-418 (MYWCPKYMWSECFA)
Second: Phage-419 (VDWCPAHMWNECYN)
The Background signal of the first is lower: 0.072 for the first, 0.208 for the second.

Going from Phage-420 (MFWCPSTMWNRCFD) to Phage-422 (MYWCPINMWDYCYA), the Background signal rises from 0.063 to 0.122.

First: Phage-423 (INLCPTPMWNRCWL)
Second: Phage-424 (ITQCPSTMWNRCSV)
The Background signal of the first is higher: 0.119 for the first, 0.067 for the second.

Compared with Phage-425 (MDLCPTAMWNRCFY), Phage-426 (MFLCPSAMWNRCFY) is higher in Background signal: 0.063 for the first, 0.069 for the second.

Compared with Phage-428 (MNWCPSTMWNRCLT), Phage-430 (IHLCHWVPWIKCSH) is higher in Background signal: 0.067 for the first, 2.516 for the second.

First: Phage-431 (MAWCPADQWHECFN)
Second: Phage-432 (IDWCPIIQGLPCFA)
The Background signal of the first is higher: 0.076 for the first, 0.058 for the second.

Going from Phage-433 (MAWCPWAQFDECLA) to Phage-434 (IVWCPTTQWNRCAT), the Background signal rises from 0.073 to 0.113.

Compared with Phage-435 (MDWCPRDRWVDCYA), Phage-436 (MDWCPRDRWADCFN) is lower in Background signal: 0.157 for the first, 0.063 for the second.

Phage-437 (MDWCPVDRWADCFN) and Phage-438 (MDWCPMSRWAFCFD) are the same in Background signal: 0.071 for the first, 0.071 for the second.

Going from Phage-439 (MDWCPRDRWDVCFA) to Phage-440 (MDWCPRDRWVDCFN), the Background signal rises from 0.073 to 0.106.

First: Phage-441 (MDWCPRDRWDDCFF)
Second: Phage-442 (IYWCPIDRWNDCYN)
The Background signal of the first is lower: 0.114 for the first, 0.177 for the second.

First: Phage-443 (MDWCPMTRWNDCYF)
Second: Phage-444 (VNQCTRYRWAECLN)
The Background signal of the first is lower: 0.081 for the first, 0.465 for the second.

Compared with Phage-445 (MDWCPRARWHDCFF), Phage-446 (MDWCPRDRWDDCFN) is lower in Background signal: 0.097 for the first, 0.069 for the second.

Going from Phage-448 (MAWCPWASFDECLA) to Phage-449 (MVDCPLISFDECLA), the Background signal rises from 0.104 to 0.246.

Compared with Phage-450 (EDWCPTDVWPYCFS), Phage-451 (MDWCPRFWWHECYA) is higher in Background signal: 0.100 for the first, 0.246 for the second.

First: Phage-452 (MDWCPRDWWHMCFN)
Second: Phage-453 (MDWCPSDYWYVCFA)
The Background signal of the first is higher: 0.100 for the first, 0.065 for the second.

With Phage-427 (VILCPTTMWNRCFH) the Background signal was 0,100.

What follows are substances tested on PSMA Fab (assay: Phage binding ELISA, PSMA Fab, with or without PSMA antigen (peptide-179 and peptide-180 libraries)). Conditions: peptide-180 library clonal phage; background (no Fab).
Sequence of PSMA Fab (as listed by the source): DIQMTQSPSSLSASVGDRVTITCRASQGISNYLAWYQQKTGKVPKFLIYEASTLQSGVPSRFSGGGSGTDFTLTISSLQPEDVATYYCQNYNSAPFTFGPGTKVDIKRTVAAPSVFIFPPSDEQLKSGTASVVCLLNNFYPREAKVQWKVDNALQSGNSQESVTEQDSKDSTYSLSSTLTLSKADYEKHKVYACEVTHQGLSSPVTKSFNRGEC
Sequence of PSMA Fab (as listed by the source): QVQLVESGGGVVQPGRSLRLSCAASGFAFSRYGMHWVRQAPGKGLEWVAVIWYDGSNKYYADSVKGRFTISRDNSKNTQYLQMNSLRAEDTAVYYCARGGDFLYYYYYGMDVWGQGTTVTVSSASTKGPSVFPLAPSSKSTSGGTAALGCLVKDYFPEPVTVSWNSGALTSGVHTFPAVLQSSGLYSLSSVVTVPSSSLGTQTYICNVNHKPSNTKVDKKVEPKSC
Description: (§1) Once the phage optimization libraries were completed, phage libraries were bio-panned using PSMA Fab loaded beads. Multiple rounds of panning were performed where bacteriophage was allowed to bind to PSMA Fab loaded beads. washed. eluted, and amplified. After panning, phage infected bacteria were plated out and colonies picked into 96 well blocks. Clonal phage was then amplified and separated from bacterial cells via centrifugation. Phage containing supemnatants were tested in binding ELISAs against PSMA Fab coated plates in the presence or absence of saturating concentrations of PSMA antigen. Phage able to bind PSMA Fab were selected for sequence analysis if the binding signal was reduced in the presence of PSMA.
Clonal phage were harvested as crude supernatants and screened via standard ELISAs. Briefly, biotinylated PSMA Fab was captured on neutravidin coated plates. Prior to the addition of clonal phage. wells were incubated with blocking buffer and PSMA antigen or blocking buffer alone. Without washing or aspirating, clonal phage supernatants were then added to the wells and incubated for a short time. Wells were then washed followed by detection of bound phage using a horse radish conjugated anti-M13 antibody. Clonal phage of interest were then sent for sequence analysis.
as §1, with “beads, washed,” for “beads. washed.”, “supernatants” for “supemnatants”

First: Phage-2787 (LWKSCTPEWMCAEW)
Second: Phage-2788 (SVKWCTPSWMCTEW)
The “Phage binding ELISA Background signal” value of the first is higher: 0.0888 for the first, 0.0817 for the second.

First: Phage-2789 (VGKWCTPEWMCSGF)
Second: Phage-2790 (VMKWCTPSWMCAEA)
The “Phage binding ELISA Background signal” value of the first is lower: 0.058 for the first, 0.067 for the second.

First: Phage-2791 (WEKWCTPSWMCSGI)
Second: Phage-2792 (TQHWCTPIWMCEGL)
The “Phage binding ELISA Background signal” value of the first is lower: 0.0564 for the first, 0.0865 for the second.

Compared with Phage-2793 (VTNWCTPPWMCEML), Phage-2794 (TEKWCIPQWMCVRT) is lower in “Phage binding ELISA Background signal” value: 0.0676 for the first, 0.056 for the second.

Compared with Phage-2795 (FEKWCTPQWMCNSM), Phage-2796 (LNNWCTPAWMCVGY) is higher in “Phage binding ELISA Background signal” value: 0.0569 for the first, 0.0697 for the second.

Going from Phage-2797 (ERIWCTPKWMCETF) to Phage-2798 (HFKWCIPPWMCLEI), the “Phage binding ELISA Background signal” value rises from 0.0696 to 0.0798.

Compared with Phage-2799 (ESKWCVPTWMCAEN), Phage-2800 (DYKWCTPPWMCDSR) is higher in “Phage binding ELISA Background signal” value: 0.0516 for the first, 0.0795 for the second.

Going from Phage-2801 (SDNWCKPEWMCVGH) to Phage-2802 (TPKWCTPAWMCVVS), the “Phage binding ELISA Background signal” value rises from 0.0738 to 0.0829.

First: Phage-2803 (VKHVCMPEWMCYWS)
Second: Phage-2804 (EGKWCTPTWMCQGF)
The “Phage binding ELISA Background signal” value of the first is lower: 0.0652 for the first, 0.0669 for the second.

Going from Phage-2805 (MMHWCTPPWMCEFS) to Phage-2806 (GATWCTPTWMCTGF), the “Phage binding ELISA Background signal” value rises from 0.0597 to 0.0609.

First: Phage-2807 (WENWCIPQWMCGTA)
Second: Phage-2808 (MEKWCTPRWMCVGM)
The “Phage binding ELISA Background signal” value of the first is higher: 0.1629 for the first, 0.0767 for the second.

Compared with Phage-2809 (VTKLCIPEWMCVIQ), Phage-2810 (MDIWCKPRWMCEEY) is higher in “Phage binding ELISA Background signal” value: 0.0543 for the first, 0.0644 for the second.

First: Phage-2811 (VPKWCTPSWMCEFT)
Second: Phage-2812 (VGPWCIPDWMCDVV)
The “Phage binding ELISA Background signal” value of the first is higher: 0.0593 for the first, 0.0572 for the second.

Compared with Phage-2813 (FSKLCTPPWMCSVS), Phage-2814 (PMKWCTPPWMCSYS) is higher in “Phage binding ELISA Background signal” value: 0.0586 for the first, 0.0793 for the second.

Compared with Phage-2815 (IDKWCVPAWMCSPA), Phage-2816 (GDKWCKPSWMCDFF) is lower in “Phage binding ELISA Background signal” value: 0.0608 for the first, 0.0602 for the second.

First: Phage-2817 (EAKWCTPPWMCSLV)
Second: Phage-2818 (SVHMCKPPWMCQSM)
The “Phage binding ELISA Background signal” value of the first is higher: 0.0615 for the first, 0.0587 for the second.

Compared with “Phage-2835 (VAKLCTPAWMCSAM; not fully specified; cysteine pairing not given here)”, “Phage-2836 (DWKLCKPTWMCESL; not fully specified; cysteine pairing not given here)” is lower in “Phage binding ELISA Background signal” value: 0.0643 for the first, 0.0582 for the second.

Compared with “Phage-2837 (VDRWCTPPWMCDWQ; cysteine pairing not given here; also: large carrier left off)”, “Phage-2838 (HPKLCTPEWMCVIQ; not fully specified; cysteine pairing not given here)” is higher in “Phage binding ELISA Background signal” value: 0.0583 for the first, 0.0666 for the second.

Compared with “Phage-2839 (DSHWCMPVWMCMGL; not fully specified; cysteine pairing not given here)”, “Phage-2840 (EPQWCIPKWMCDHM; not fully specified; cysteine pairing not given here)” is lower in “Phage binding ELISA Background signal” value: 0.0737 for the first, 0.0612 for the second.

Compared with “Phage-2841 (ESIRCTPAWMCVEM; not fully specified; cysteine pairing not given here)”, “Phage-2842 (PEVMCRPVWMCLGF; not fully specified; cysteine pairing not given here)” is lower in “Phage binding ELISA Background signal” value: 0.0625 for the first, 0.0609 for the second.

First: Phage-2843 (MLPICKPDWMCAGF; not fully specified; cysteine pairing not given here)
Second: Phage-2844 (VVAMCKPAWMCAGL; not fully specified; cysteine pairing not given here)
The “Phage binding ELISA Background signal” value of the first is higher: 0.0724 for the first, 0.0591 for the second.

Compared with “Phage-2845 (WDMLCRPAWMCEGF; not fully specified; cysteine pairing not given here)”, “Phage-2846 (WEVRCVPEWMCVGF; not fully specified; cysteine pairing not given here)” is lower in “Phage binding ELISA Background signal” value: 0.0711 for the first, 0.0615 for the second.

Compared with “Phage-2847 (WMPRCVPEWMCAGF; not fully specified; cysteine pairing not given here)”, “Phage-2848 (VMTVCKPAWMCTGF; not fully specified; cysteine pairing not given here)” is lower in “Phage binding ELISA Background signal” value: 0.1667 for the first, 0.1338 for the second.

Going from “Phage-2849 (VFPICKPSWMCVGM; not fully specified; cysteine pairing not given here)” to “Phage-2850 (VNIRCEPAWMCMGF; not fully specified; cysteine pairing not given here)”, the “Phage binding ELISA Background signal” value falls from 0.0918 to 0.0727.

First: Phage-2851 (DMRLCVPEWMCLGL; not fully specified; cysteine pairing not given here)
Second: Phage-2852 (VMPLCKPAWMCGGF; not fully specified; cysteine pairing not given here)
The “Phage binding ELISA Background signal” value of the first is higher: 0.0889 for the first, 0.0869 for the second.

Compared with “Phage-2853 (MLPLCVPAWMCSGF; not fully specified; cysteine pairing not given here)”, “Phage-2854 (VHIMCKPAWMCLGF; not fully specified; cysteine pairing not given here)” is higher in “Phage binding ELISA Background signal” value: 0.061 for the first, 0.0917 for the second.

Going from “Phage-2855 (WEMKCIPEWMCRGF; cysteine pairing not given here; also: large carriers left off)” to “Phage-2856 (VQRMCEPSWMCFGF; not fully specified; cysteine pairing not given here)”, the “Phage binding ELISA Background signal” value falls from 0.0794 to 0.0631.
